# Assay results reported in patent publication US20260131007A1, “Mannose 6-Phosphate Receptor Binding Compounds for the Degradation of Extracellular Proteins” (Avilar Therapeutics, Inc., priority 2023, published 2026).
# Molecular target: T1, Insulin-like growth factor 2 receptor (IGF-1IR, cation-independent mannose-6-phosphate receptor, CI-MPR; hIGF-IIR) (Homo sapiens, UniProt P11717)
# T1 construct: purchased R&D Systems 6418-GR
# Assay: HTRF-based ternary complex inhibition assay for relative affinity of IGF-IIR ligands
# Details: competition with MTAC probe for His-tagged hIGF-IIR; biotinylated IgG1; apparent binding affinity; read-out: TCF INH (HTRF) IC50
# Method: The apparent binding affinity of Insulin-like growth factor 2 receptor (IGF-1IR, also called the cation- independent mannose-6-phosphate receptor (CI-MPR)) ligands was determined indirectly by competing with a probe molecule for binding to IGF-1IR. The probe is a Mannose 6-Phosphate Ligand (“Ligand”) and binds to hIGF-IIR and IgG1 to form a hIGF-IIR: Ligand: IgG1 ternary complex. The ternary complex was detected by an HTRF readout. The ternary complex is disrupted in the presence of IGF-1IR ligand, resulting in decreased HTRF signal. IGF-1IR ligands of 3-fold dilution series were prepared from 10 mM DMSO stock on a 384-well LDV microplate using Echo Acoustic Liquid Handler (Beckman Coulter Life Sciences) followed by transfer of 600 nL of the solutions to an OptiPlate 384-well microplate (PerkinElmer, 6007290). Manose-6-phosphate (M6P; J&K, 530168) and glucose-6-phosphate (G6P; Sigma, V900924) were prepared from 100 mM stock in the same manner and were used as positive and negative controls, respectively. The wells used as 0% and 100% inhibition controls were prepared by adding 600 nL DMSO. 20 nL of 50 μM MTAC probe was transferred to all wells except the wells used as 100% Inhibition control. 9.4 μL working solution containing 65.1 nM of Biotinylated-IgG1 (Viva 20211108) and 65.1 nM of His-tagged hIGF-IIR (R&D Systems, 6418-GR) in assay buffer 50 mM Tris, pH 7.5, 150 mM NaCl, 50 mM CaCl2, 0.01% Tween-20 was transferred to all wells. The plate was incubated at room temperature for 60 min with gentle shaking to allow molecular interaction to reach equilibration. Following this, 10 μL of HTRF detection solution containing 15 nM Streptavidin-d2 (PerkinElmer, 610SADLA) and 0.7 nM MAb Anti 6HIS—Tb cryptate (PerkinElmer, 61HISTLA) in PPI Terbium detection buffer (PerkinElmer, 61DB10RDF) was added. The assay plate was incubated at room temperature with gentle shaking for 60 min to allow HTRF signal to develop. The plate was gently spun on a centrifuge then placed on a EnVision plate reader (Perkin Elmer, EnVision 2104) to read fluorescence ratio of 665 nm/615 nm. Percent inhibitions were calculated with this equation: % I=100* [1−(X−100% I/(0% I−100% I)] where X is the […] in the presence of IGF-1IR ligand. The apparent binding affinity (presented as IC50) was calculated by fitting the % inhibition data with a non-linear 4-parameter inhibition equation using GraphPad Prism (GraphPad Software, LLC; version 9.4.1).
row,Structure (SMILES),IC50 [µM]
1,"O=P(O)(CC[C@H]1O[C@H](Oc2ccccc2)[C@@H](O)[C@@H](O)[C@@H]1O)Cc1ccccc1O [Compound A46, (2-hydroxybenzyl) (2-((2R,3S,4S,5S,6R)-3,4,5-trihydroxy-6-phenoxytetrahydro-2H-pyran-2-yl)ethyl)phosphinic acid]",< 10
2,"CP(=O)(O)CC[C@H]1O[C@H](Oc2ccccc2)[C@@H](O)[C@@H](O)[C@@H]1O [Compound A44, methyl(2-((2R,3S,4S,5S,6R)-3,4,5-trihydroxy-6-phenoxytetrahydro-2H-pyran-2-yl)ethyl)phosphinic acid]",10 to 100
3,"O=C(NS(=O)(=O)CC[C@H]1O[C@H](O)[C@@H](O)[C@@H](O)[C@@H]1O)c1ccccc1 [Compound A12, N-((2-((2R,3S,4S,5S,6S)-3,4,5,6-tetrahydroxytetrahydro-2H-pyran-2-yl)ethyl)sulfonyl)benzamide]",100 to 300
4,"COc1ccc(OC2O[C@H](CCP(=O)(O)CC3CC3(F)F)[C@@H](O)[C@H](O)[C@@H]2O)cc1 (stereo partly drawn) [Compound A58, ((2,2-difluorocyclopropyl)methyl) (2-((2R,3S,4S,5S)-3,4,5-trihydroxy-6-(4-methoxyphenoxy)tetrahydro-2H-pyran-2-yl)ethyl)phosphinic acid]",< 10
5,"O=P(O)(O)CC[C@H]1O[C@H](c2cn(CCc3ccccc3)nn2)[C@@H](O)[C@@H](O)[C@@H]1O [Compound A17, (2-((2R,3S,4S,5S,6R)-3,4,5-trihydroxy-6-(1-phenethyl-1H-1,2,3-triazol-4-yl)tetrahydro-2H-pyran-2-yl)ethyl)phosphonic acid]",< 10
6,"C[Si](C)(C)C#C[C@H]1O[C@H](CCP(=O)(O)O)[C@@H](O)[C@H](O)[C@@H]1O [Compound A18, (2-((2R,3S,4S,5S,6R)-3,4,5-trihydroxy-6-((trimethylsilyl)ethynyl)tetrahydro-2H-pyran-2-yl)ethyl)phosphonic acid]",< 10
7,"O=P(O)(O)CC[C@H]1OC(c2cc3c(cc2O)Cc2ccccc2-3)[C@@H](O)[C@@H](O)[C@@H]1O (stereo partly drawn) [Compound A15, (2-((2R,3S,4S,5S)-3,4,5-trihydroxy-6-(2-hydroxy-9H-fluoren-3-yl)tetrahydro-2H-pyran-2-yl)ethyl)phosphonic acid]",< 10
8,"CO[C@@H]1O[C@H](CCS(=O)(=O)Nc2ncccn2)[C@@H](O)[C@H](O)[C@@H]1O [Compound A8, N-(pyrimidin-2-yl)-2-((2R,3S,4S,5S,6R)-3,4,5-trihydroxy-6-methoxytetrahydro-2H-pyran-2-yl)ethane-1-sulfonamide]",10 to 100
9,"COc1ccc(O[C@H]2O[C@H](CCP(=O)(O)Cc3c(F)cc(F)cc3F)[C@@H](O)[C@H](O)[C@@H]2O)cc1 [Compound A55, (2,4,6-trifluorobenzyl) (2-((2R,3S,4S,5S)-3,4,5-trihydroxy-6-(4-methoxyphenoxy)tetrahydro-2H-pyran-2-yl)ethyl)phosphinic acid]",10 to 100
10,"COc1ccc(OC2O[C@H](CCP(=O)(O)Cc3ccccc3)[C@@H](O)[C@H](O)[C@@H]2O)cc1 (stereo partly drawn) [Compound A81, benzyl(2-((2R,3S,4S,5S)-3,4,5-trihydroxy-6-(4-methoxyphenoxy)tetrahydro-2H-pyran-2-yl)ethyl)phosphinic acid]",< 10
11,"COc1ccc(OC2O[C@H](CCP(=O)(O)Cc3ccccn3)[C@@H](O)[C@H](O)[C@@H]2O)cc1 (stereo partly drawn) [Compound A50, (pyridin-2-ylmethyl) (2-((2R,3S,4S,5S)-3,4,5-trihydroxy-6-(4-methoxyphenoxy)tetrahydro-2H-pyran-2-yl)ethyl)phosphinic acid]",< 10
12,"CC#CCP(=O)(O)CC[C@H]1OC(Oc2ccc(OC)cc2)[C@@H](O)[C@@H](O)[C@@H]1O (stereo partly drawn) [Compound A53, but-2-yn-1-yl(2-((2R,3S,4S,5S)-3,4,5-trihydroxy-6-(4-methoxyphenoxy)tetrahydro-2H-pyran-2-yl)ethyl)phosphinic acid]",10 to 100
13,"COc1ccc(O[C@H]2O[C@H](CCP(=O)(O)Cc3c(F)ccc(F)c3F)[C@@H](O)[C@H](O)[C@@H]2O)cc1 [Compound A54, (2,3,6-trifluorobenzyl) (2-((2R,3S,4S,5S)-3,4,5-trihydroxy-6-(4-methoxyphenoxy)tetrahydro-2H-pyran-2-yl)ethyl)phosphinic acid]",< 10
14,"O=P(O)(O)CC[C@H]1OC(C#Cc2ccccc2)[C@@H](O)[C@@H](O)[C@@H]1O (stereo partly drawn) [Compound A16, (2-((2R,3S,4S,5S)-3,4,5-trihydroxy-6-(phenylethynyl)tetrahydro-2H-pyran-2-yl)ethyl)phosphonic acid]",< 10
15,"COc1ccc(OC2O[C@H](CCP(=O)(O)CC#C[Si](C)(C)C)[C@@H](O)[C@H](O)[C@@H]2O)cc1 (stereo partly drawn) [Compound A75, 2-[(2R,3S,4S,5S)-3,4,5-trihydroxy-6-(4-methoxyphenoxy)tetrahydropyran-2-yl]ethyl-(3-trimethylsilylprop-2-ynyl)phosphinic acid]",10 to 100
16,"Nc1ccc2c(c1)Cc1cc(O[C@H]3O[C@H](CCP(=O)(O)O)[C@@H](O)[C@H](O)[C@@H]3O)ccc1-2 [Compound A76, (2-((2R,3S,4S,5S,6R)-6-((7-amino-9H-fluoren-2-yl)oxy)-3,4,5-trihydroxytetrahydro-2H-pyran-2-yl)ethyl)phosphonic acid]",< 10
17,"O=P(O)(O)CC[C@H]1O[C@H](Oc2ccc3c(c2)Cc2ccccc2-3)[C@@H](O)[C@@H](O)[C@@H]1O [Compound A19, (2-((2R,3S,4S,5S,6R)-6-((9H-fluoren-2-yl)oxy)-3,4,5-trihydroxytetrahydro-2H-pyran-2-yl)ethyl)phosphonic acid]",< 10
18,"O=P(O)(O)CC[C@H]1O[C@H](/C=C/c2ccccc2)[C@@H](O)[C@@H](O)[C@@H]1O [Compound A21, (2-((2R,3S,4S,5S,6R)-3,4,5-trihydroxy-6-((E)-styryl)tetrahydro-2H-pyran-2-yl)ethyl)phosphonic acid]",10 to 100
19,"C#CCCCCNC(=O)Nc1ccc2c(c1)Cc1cc(O[C@H]3O[C@H](CCP(=O)(O)O)[C@@H](O)[C@H](O)[C@@H]3O)ccc1-2 [Compound A83, (2-((2R,3S,4S,5S,6R)-6-((7-(3-(hex-5-yn-1-yl)ureido)-9H-fluoren-2-yl)oxy)-3,4,5-trihydroxytetrahydro-2H-pyran-2-yl)ethyl)phosphonic acid]",< 10
20,"CC(=O)NS(=O)(=O)OC[C@H]1O[C@H](Oc2ccccc2)[C@@H](O)[C@@H](O)[C@@H]1O [Compound A4, ((2R,3S,4S,5S,6R)-3,4,5-trihydroxy-6-phenoxytetrahydro-2H-pyran-2-yl)methyl acetylsulfamate]",100 to 300
21,"O=P(O)(O)CC[C@H]1O[C@H](c2cn(-c3ccccc3)nn2)[C@@H](O)[C@@H](O)[C@@H]1O [Compound A84, (2-((2R,3S,4S,5S,6R)-3,4,5-trihydroxy-6-(1-phenyl-1H-1,2,3-triazol-4-yl)tetrahydro-2H-pyran-2-yl)ethyl)phosphonic acid]",< 10
22,"COc1ccc(OC2O[C@H](CCP(=O)(O)CC#N)[C@@H](O)[C@H](O)[C@@H]2O)cc1 (stereo partly drawn) [Compound A48, (cyanomethyl) (2-((2R,3S,4S,5S)-3,4,5-trihydroxy-6-(4-methoxyphenoxy)tetrahydro-2H-pyran-2-yl)ethyl)phosphinic acid]",10 to 100
23,"COC(=O)c1ccc(O[C@H]2O[C@H](CNc3c(O)c(=O)c3=O)[C@@H](O)[C@H](O)[C@@H]2O)cc1 [Compound A7, methyl 4-(((3S,4S,5S,6R)-3,4,5-trihydroxy-6-(((2-hydroxy-3,4-dioxocyclobut-1-en-1-yl)amino)methyl)tetrahydro-2H-pyran-2-yl)oxy)benzoate]",100 to 300
24,"COc1ccc(OC2O[C@H](CCP(=O)(O)CC3=CCCC3)[C@@H](O)[C@H](O)[C@@H]2O)cc1 (stereo partly drawn) [Compound A78, (cyclopent-1-en-1-ylmethyl) (2-((2R,3S,4S,5S)-3,4,5-trihydroxy-6-(4-methoxyphenoxy)tetrahydro-2H-pyran-2-yl)ethyl)phosphinic acid]",< 10
